Read-outs that look alike come from different tables or passages of the source.
Key:
[1] = test system: E1-deleted adenovirus (H5.010CMVlacZ, H5.010CBALP)
H5.010CBlacZ = test: Adenovirus-specific IgG and IgA in BAL by ELISA; format: in vivo, C57BL/6 mice; conditions: day 28, versus control mice
Description: Adenovirus-specific antibody isotype was determined in BAL by using an enzyme-linked immunosorbent assay (ELISA). Briefly, 96-well plates were coated with 100 μl of PBS containing 5×10^9 particles of H5.010CBlacZ for 18 hours at 4° C. The wells were washed 5 times with PBS. After blocking with 200 μl of 2% BSA in PBS, the plates were rinsed once with PBS and incubated with 1:10 diluted BAL samples for 90 minutes at 4° C. Thereafter, the wells were extensively washed and refilled with 100 μl of 1:1000 diluted ALP-conjugated anti-mouse IgG or IgA (Sigma). The plates were incubated, subsequently washed 5 times, and 100 μl of the substrate solution (p-nitrophenyl phosphate, PNPP) was added to each well. Substrate conversion was stopped by the addition of 50 μl of 0.1M EDTA, and reactions were read at 405 nm.
(§1) The results are shown graphically in FIGS. 1A through 1C, which summarize neutralizing antibody titer, and the relative amounts (OD405) of IgG and IgA present in BAL samples.

[2] = test system: recombinant adenoviruses H5.010CBALP and H5.010CMVlacZ; test: Liver-directed adenovirus gene transfer and readministration (Example 3); format: in vivo, C57BL/6 mice; conditions: liver, readministered day 28, read day 31
Description: Experiments substantially identical to those described in Example 2 above were conducted in which viral vectors were administered into the blood for introduction of the transgene into the liver (rather than intratracheal delivery into the lung).
Female C57BL/6 mice (6-8 weeks old) were injected with suspensions of H5.010CBALP (1×10^9 pfu in 50 μl of PBS) i.p. at day 0 and similarly with H5.010CMVlacZ at day 28. One group of such mice was used as a control. Another group of mice was acutely depleted of CD4^+ cells by i.p. injection of antibody to CD4^+ cells (GK1.5; ATCC No. TIB207, 1:10 dilution of ascites) at the time of the initial gene therapy (days −3, 0, and +3). A third group of mice was injected with IL-12 (2 μg, i.p. injections) at the time of the first administration of virus (days 0 and +1). A fourth group of mice was injected with gamma interferon (2 μg, i.p. injections) at the time of the first administration of virus (days 0 and +1) .
When mice were subsequently euthanized and necropsied at days 3, 28, or 31, liver tissues were prepared for cryosections according to the procedures used above for lung tissue in Example 2.
The cryosection results were substantially similar for liver-directed gene therapy according to this method as for the lung-directed therapy of Example 2 above. The results described below were obtained from the alkaline phosphatase histochemical stains (magnification ×100) or β-galactosidase X-gal stains (magnification ×100).

[3] = test system: human Ad5 recombinant vector; test: Neutralizing antibody to adenovirus in BAL (Hela cell lacZ transduction); format: in vivo, C57BL/6 mice; conditions: day 28, versus control mice
Description: BAL samples obtained from animals 28 days after primary exposure to recombinant virus were evaluated for neutralizing antibodies to adenovirus and anti-adenovirus antibody isotypes as follows. The same four groups of C57BL/6 mice, i.e., control, CD4^+ depleted, IL-12 treated and IFN-γ treated, were infected with H5.010BALP. Neutralizing antibody was measured in serially-diluted BAL samples (100 μl) which were mixed with H5.010CBlacZ (1×10^6 pfu in 20 μl), incubated for 1 hour at 37° C., and applied to 80% confluent Hela cells in 96 well plates (2×10^4 cells per well). After 60 minutes of incubation at 37° C., 100 μl of DMEM containing 20% FBS was added to each well. Cells were fixed and stained for β-galactosidase expression the following day.
as §1

[4] = test system: recombinant adenoviruses H5.010CBALP and H5.010CMVlacZ; test: Lung-directed adenovirus gene transfer and readministration, transgene expression by histochemistry (Example 2); format: in vivo, C57BL/6 mice; conditions: lung, readministered day 28, read day 31
Description: Female C57BL/6 mice (6˜8 week old) were infected with suspensions of H5.010CBALP (1×10^9 pfu in 50 μl of PBS) via the trachea at day 0 and similarly with H5.010CMVlacZ at day 28. One group of such mice was used as a control. Another group of mice were acutely depleted of CD4^+ cells by i.p. injection of antibody to CD4^+ cells (GK1.5; ATCC No. TIB207, 1:10 dilution of ascites) at the time of the initial gene therapy (days −3, 0, and +3). A third group of mice was injected with IL-12 (1 μg intratracheal or 2 μg, i.p. injections) at the time of the first administration of virus (days 0 and +1). A fourth group of mice was injected with gamma interferon. (1 μg intratracheal or 2 μg, i.p. injections) at the time of the first administration of virus (days 0 and +1).
When mice were subsequently euthanized and necropsied at days 3, 28, or 31, lung tissues were prepared for cryosections, while bronchial alveolar lavage (BAL) and mediastinal lymph nodes (MLN) were harvested for immunological assays.
The lung tissues were evaluated for ALP expression at day 3 and day 28 by histochemical staining following the procedures of Yang I, cited above. β-galactosidase expression was assayed at day 31 by X-gal histochemical staining. The results described below were obtained from the alkaline phosphatase histochemical stains (magnification ×100) or β-galactosidase X-gal stains (magnification ×100).

Row | Compound | transgene expression ([1]; liver) | formation of neutralizing antibody ([1]; liver, at higher doses) | vector readministration ([1]; liver, at higher doses) | CD4 and CD8 T helper cell activation to adenovirus capsid protein ([1]; liver, short course at the time of virus delivery) | formation of neutralizing antibodies ([1]; lung) | transgene expression ([1]; lung) | virus specific IgA in BAL (H5.010CBlacZ) | gene transfer upon second administration of virus (lacZ) [2] | neutralizing antibody in BAL [3] | gene transfer upon second administration of virus (lacZ) [4]
1 | O=P1(N(CCCl)CCCl)NCCCO1 (stereo not shown) [cyclophosphamide] | transgene expression was prolonged | formation of neutralizing antibody was prevented | allowing successful vector readministration | successfully interrupt both CD4 and CD8 T helper cell activation | prevented formation of neutralizing antibodies at all doses | stabilized transgene expression at high dose | – | – | – | –
2 | gamma interferon [IFN-γ] | – | – | – | – | – | – | decreased as compared to the control animals not treated with cytokine, but not to the extent obtained with those treated with IL-12 | efficient gene transfer was accomplished upon a second administration of virus | decreased as compared to the control animals not treated with cytokine, but not to the extent obtained with those treated with IL-12 | efficient gene transfer was accomplished upon a second administration of virus

From US6372208B1, “Method of reducing an immune response to a recombinant virus” (The Trustees of the University of Pennsylvania, priority 1996, dated 2002)
